Reference: EP4806900A2, “RAS INHIBITORS” (Revolution Medicines, Inc., priority 2019, dated 2021)

Each compound was assayed on NCI-H358 (K-Ras G12C) (assay: CellTiter-Glo cell viability assay, NCI-H358). Conditions: Table 5; read-out: H358 Cell Viability assay data (K-Ras G12C, IC50).
Format: cell-based, human
Description: Note - The following protocol describes a procedure for monitoring cell viability of K-Ras mutant cancer cell lines in response to a compound of the invention. Other RAS isoforms may be employed, though the number of cells to be seeded will vary based on cell line used.
Test compounds (132.5 nL) were directly dispensed into the assay plates containing cells. […] On day 5, assay plates and their contents were equilibrated to room temperature for approximately 30 minutes. […] Luminescence was measured using the PerkinElmer Enspire. Data were normalized by the following: (Sample signal/Avg. DMSO)*100. The data were fit using a four-parameter logistic fit.

IC50	Structure (SMILES)
10 to 100 nM	C=CC(=O)N1CC[C@H](C(=O)N(C)[C@H](C(=O)N[C@H]2Cc3cc(O)cc(c3)-c3ccc4c(c3)c(c(-c3ccc5cc(CN(C)C)n(C)c5c3)n4CC)CC(C)(C)COC(=O)[C@@H]3CCCN(N3)C2=O)C(C)C)C1 [Compound A35]
10 to 100 nM	C=CC(=O)N1C[C@H](C)[C@H](C(=O)N(C)[C@H](C(=O)N[C@H]2Cc3cc(O)cc(c3)-c3ccc4c(c3)c(c(-c3ccccc3CCOC)n4CC)CC(C)(C)COC(=O)[C@@H]3CCCN(N3)C2=O)C(C)C)C1 [Compound A41]
100 to 1000 nM	C=CC(=O)N1CC[C@H](C(=O)N(C)[C@H](C(=O)N[C@H]2Cc3cc(N)cc(c3)-c3ccc4c(c3)c(c(-c3ccccc3COC)n4CC)CC(C)(C)COC(=O)[C@@H]3CCCN(N3)C2=O)C(C)C)C1 [Compound A42]
10 to 100 nM	C=CC(=O)N1C[C@H](C)[C@H](C(=O)N(C)[C@H](C(=O)N[C@H]2Cc3cc(O)cc(c3)-c3ccc4c(c3)c(c(-c3ccccc3CN(C)C)n4CC)CC(C)(C)COC(=O)[C@@H]3CCCN(N3)C2=O)C2CCCC2)C1 [Compound A43]
> 1000 nM	CCn1c(-c2ccccc2CN(C)C)c2c3cc(ccc31)-c1cc(O)cc(c1)C[C@H](NC(=O)[C@H](C(C)C)N(C)C(=O)c1ccc(NC(=O)/C=C/CN(C)C)cc1)C(=O)N1CCC[C@H](N1)C(=O)OCC(C)(C)C2 [Compound A49]
100 to 1000 nM	C=CC(=O)N1CC[C@H](C(=O)N(C)[C@H](C(=O)N[C@H]2Cc3cc(O)cc(c3)-c3ccc4c(c3)c(c(-c3ccc5c(c3)OCCN5C)n4CC)CC(C)(C)COC(=O)[C@@H]3CCCN(N3)C2=O)C(C)C)C1 [Compound A50]
10 to 100 nM	C=CC(=O)N1CC[C@H](C(=O)N(C)[C@H](C(=O)N[C@H]2Cc3cc(O)cc(c3)-c3ccc4c(c3)c(c(-c3ccc(CN(C)C)cc3COC)n4CC)CC(C)(C)COC(=O)[C@@H]3CCCN(N3)C2=O)C(C)C)C1 [Compound A51]
10 to 100 nM	C=CC(=O)N1C[C@H](C)[C@H](C(=O)N(C)[C@H](C(=O)N[C@H]2Cc3cc(O)cc(c3)-c3ccc4c(c3)c(c(-c3ccccc3CN(C)C)n4CC)CC(C)(C)COC(=O)[C@@H]3CCCN(N3)C2=O)C(C)C)C1 [Compound A52]
100 to 1000 nM	C=CC(=O)N1CC[C@H](C(=O)N(C)[C@H](C(=O)N[C@H]2Cc3cc(O)cc(c3)-c3cc(F)c4c(c3)c(c(-c3ccccc3CCOC)n4CC)CC(C)(C)COC(=O)[C@@H]3CCCN(N3)C2=O)C(C)C)C1 [Compound A53]
10 to 100 nM	CCn1c(-c2cccnc2COC)c2c3cc(ccc31)-c1cc(O)cc(c1)C[C@H](NC(=O)[C@H](C(C)C)N(C)C(=O)[C@H]1CCN(C(=O)/C=C/CN(C)C)C1)C(=O)N1CCC[C@H](N1)C(=O)OCC(C)(C)C2 [Compound A54, (2S)-2-{1-[(3S)-1-[(2E)-4-(dimethylamino)but-2-enoyl]pyrrolidin-3-yl]-N-methylformamido}-N-[(8S,14S)-22-ethyl-4-hydroxy-21-[2-(methoxymethyl)pyridin-3-yl]-18,18-dimethyl-9,15-dioxo-16-oxa-10,22,28-triazapentacyclo[18.5.2.1^2,^6.1^10,^14.0^23,^27]nonacosa-1(26),2,4,6(29),20,23(27),24-heptaen-8-yl]-3-methylbutanamide]
< 10 nM	C=CC(=O)N1CC[C@H](C(=O)N(C)[C@H](C(=O)N[C@H]2Cc3cc(O)cc(c3)-c3ccc4c(c3)c(c(-c3cccnc3COC)n4CC)CC(C)(C)COC(=O)[C@@H]3CCCN(N3)C2=O)C2CCCC2)C1 [Compound A55]
10 to 100 nM	C=CC(=O)N1CC[C@H](C(=O)N(C)[C@H](C(=O)N[C@H]2Cc3cc(O)cc(c3)-c3ccc4c(c3)c(c(-c3cncc(C#N)c3)n4CC)CC(C)(C)COC(=O)[C@@H]3CCCN(N3)C2=O)C(C)C)C1 [Compound A62]
10 to 100 nM	C=CC(=O)N1CC[C@H](C(=O)N(C)[C@H](C(=O)N[C@H]2Cc3cc(O)cc(c3)-c3ccc4c(c3)c(c(C3=C(COC)CCCC3)n4CC)CC(C)(C)COC(=O)[C@@H]3CCCN(N3)C2=O)C(C)C)C1 [Compound A64]
100 to 1000 nM	C=CC(=O)N1CC[C@H](C(=O)N(C)[C@H](C(=O)N[C@H]2Cc3cc(O)cc(c3)-c3ccc4c(c3)c(c([C@@H]3CC=CN=C3COC)n4CC)CC(C)(C)COC(=O)[C@@H]3CCCN(N3)C2=O)C(C)C)C1 [Compound A65]
10 to 100 nM	C=CC(=O)N1CC[C@H](C(=O)N(C)[C@H](C(=O)N[C@H]2Cc3cc(O)cc(c3)-c3ccc4c(c3)c(c(-c3cccnc3COC)n4C)CC(C)(C)COC(=O)[C@@H]3CCCN(N3)C2=O)C(C)C)C1 [Compound A66]
100 to 1000 nM	C=CC(=O)N1CC[C@@]2(CCN([C@H](C(=O)N[C@H]3Cc4cc(O)cc(c4)-c4ccc5c(c4)c(c(-c4ccccc4CCOC)n5CC)CC(C)(C)COC(=O)[C@@H]4CCCN(N4)C3=O)C(C)C)C2=O)C1 [Compound A68]
10 to 100 nM	C=CS(=O)(=O)N1CC[C@H](C(=O)N(C)[C@H](C(=O)N[C@H]2Cc3cc(O)cc(c3)-c3ccc4c(c3)c(c(-c3cccnc3COC)n4CC)CC(C)(C)COC(=O)[C@@H]3CCCN(N3)C2=O)C(C)C)C1 [Compound A69]
10 to 100 nM	C=CC(=O)N1CC(C(=O)N(C)[C@H](C(=O)N[C@H]2Cc3cc(O)cc(c3)-c3ccc4c(c3)c(c(-c3cccnc3COC)n4CC)CC(C)(C)COC(=O)[C@@H]3CCCN(N3)C2=O)C(C)C)C1 [Compound A70]

Structure (SMILES)	IC50
CCn1c(-c2ccccc2CCOC)c2c3cc(ccc31)-c1cc(O)cc(c1)C[C@H](NC(=O)[C@H](C(C)C)N(C)C(=O)[C@H]1CCN(C(=O)C#CCN(C)C)C1)C(=O)N1CCC[C@H](N1)C(=O)OCC(C)(C)C2 [Compound A38]	< 10 nM
C=CC(=O)N1CC[C@H](C(=O)N(C)[C@H](C(=O)N[C@H]2Cc3cc(O)cc(c3)-c3ccc4c(c3)c(c(-c3ccc(C5CCN(C)CC5)cc3)n4CC)CC(C)(C)COC(=O)[C@@H]3CCCN(N3)C2=O)C(C)C)C1 [Compound A39]	10 to 100 nM
C=CC(=O)N1CC[C@H](C(=O)N(C)[C@H](C(=O)N[C@H]2Cc3cc(O)cc(c3)-c3ccc4c(c3)c(c(-c3ccc5c(c3)CCN(C)C5)n4CC)CC(C)(C)COC(=O)[C@@H]3CCCN(N3)C2=O)C(C)C)C1 [Compound A40]	10 to 100 nM
C=CC(=O)N1CC[C@H](C(=O)N(C)[C@H](C(=O)N[C@H]2Cc3cc(O)cc(c3)-c3ccc4c(c3)c(c(-c3cccnc3COCC)n4CC)CC(C)(C)COC(=O)[C@@H]3CCCN(N3)C2=O)C(C)C)C1 [Compound A44]	10 to 100 nM
C=CC(=O)N1CC[C@H](C(=O)N(C)[C@H](C(=O)N[C@H]2Cc3cc(O)cc(c3)-c3ccc4c(c3)c(c(-c3cccnc3)n4CC)CC(C)(C)COC(=O)[C@@H]3CCCN(N3)C2=O)C(C)C)C1 [Compound A45]	10 to 100 nM
CCn1c(-c2ccccc2CN(C)C)c2c3cc(ccc31)-c1cc(O)cc(c1)C[C@H](NC(=O)[C@H](C(C)C)N(C)C(=O)c1ccc(NC(=O)/C=C/CN(C)C)cn1)C(=O)N1CCC[C@H](N1)C(=O)OCC(C)(C)C2 [Compound A46]	> 1000 nM
CCn1c(-c2ccccc2CN(C)C)c2c3cc(ccc31)-c1cc(O)cc(c1)C[C@H](NC(=O)[C@H](C(C)C)N(C)C(=O)[C@H]1CCN(C(=O)/C=C/CN(C)C)C1)C(=O)N1CCC[C@H](N1)C(=O)OCC(C)(C)C2 [Compound A47]	10 to 100 nM
C=CC(=O)N1C[C@H](C)[C@H](C(=O)N(C)[C@H](C(=O)N[C@H]2Cc3cc(O)cc(c3)-c3ccc4c(c3)c(c(-c3cccnc3COC)n4CC)CC(C)(C)COC(=O)[C@@H]3CCCN(N3)C2=O)C(C)C)C1 [Compound A56]	< 10 nM
C=CC(=O)N1C[C@H](C)[C@H](C(=O)N(C)[C@H](C(=O)N[C@H]2Cc3cc(O)cc(c3)-c3ccc4c(c3)c(c(-c3cccnc3COC)n4CC)CC(C)(C)COC(=O)[C@@H]3CCCN(N3)C2=O)C2CCCC2)C1 [Compound A57]	< 10 nM
C=CC(=O)N1CC[C@H](C(=O)N(C)[C@H](C(=O)N[C@H]2Cc3cc(O)cc(c3)-c3ccc4c(c3)c(c(C3=C(COC)COCC3)n4CC)CC(C)(C)COC(=O)[C@@H]3CCCN(N3)C2=O)C(C)C)C1 [Compound A58]	10 to 100 nM
C=CC(=O)N1CC[C@H](C(=O)N(C)[C@H](C(=O)N[C@H]2Cc3cc(OC(C)=O)cc(c3)-c3ccc4c(c3)c(c(-c3ccccc3CN(C)C)n4CC)CC(C)(C)COC(=O)[C@@H]3CCCN(N3)C2=O)C(C)C)C1 [Compound A59]	100 to 1000 nM
C=CC(=O)N1CC[C@H](C(=O)N(C)[C@H](C(=O)N[C@H]2Cc3cc(O)cc(c3)-c3ccc4c(c3)c(c(-c3cccnc3N3CC(OC)C3)n4CC)CC(C)(C)COC(=O)[C@@H]3CCCN(N3)C2=O)C(C)C)C1 [Compound A60]	10 to 100 nM
C=CC(=O)N1CC[C@H](C(=O)N(C)[C@H](C(=O)N[C@H]2Cc3cc(O)cc(c3)-c3ccc4c(c3)c(c(-c3cncnc3)n4CC)CC(C)(C)COC(=O)[C@@H]3CCCN(N3)C2=O)C(C)C)C1 [Compound A61]	10 to 100 nM
CCn1c(-c2cccnc2COC)c2c3cc(ccc31)-c1cc(O)cc(c1)C[C@H](NC(=O)[C@H](C(C)C)N(C)C(=O)c1ccc(NC(=O)/C=C/CN(C)C)cn1)C(=O)N1CCC[C@H](N1)C(=O)OCC(C)(C)C2 [Compound A67, (2E)-4-(dimethylamino)-N-(6-{[(1S)-1-{[(8S,14S)-22-ethyl-4-hydroxy-21-[2-(methoxymethyl)pyridin-3-yl]-18,18-dimethyl-9,15-dioxo-16-oxa-10,22,28-triazapentacyclo[18.5.2.1^2,^6.1^10,^14.0^23,^27]nonacosa-1(26),2,4,6(29),20,23(27),24-heptaen-8-yl]carbamoyl}-2-methylpropyl](methyl)carbamoyl}pyridin-3-yl)but-2-enamide]	100 to 1000 nM
